Columns and labels:
Type in all cases: cell-based
human TLR7 = target: T1, human TLR7 (Homo sapiens, UniProt Q9NYK1); experiment: TLR7 inhibition reporter assay (HEK-Blue cells, SEAP reporter, gardiquimod stimulation); details: HEK-Blue cells overexpressing human TLR7, SEAP reporter, gardiquimod 7.5 μM
T1 construct: host or cells: HEK-Blue cells
T1 sequence (Q9NYK1 27-1049): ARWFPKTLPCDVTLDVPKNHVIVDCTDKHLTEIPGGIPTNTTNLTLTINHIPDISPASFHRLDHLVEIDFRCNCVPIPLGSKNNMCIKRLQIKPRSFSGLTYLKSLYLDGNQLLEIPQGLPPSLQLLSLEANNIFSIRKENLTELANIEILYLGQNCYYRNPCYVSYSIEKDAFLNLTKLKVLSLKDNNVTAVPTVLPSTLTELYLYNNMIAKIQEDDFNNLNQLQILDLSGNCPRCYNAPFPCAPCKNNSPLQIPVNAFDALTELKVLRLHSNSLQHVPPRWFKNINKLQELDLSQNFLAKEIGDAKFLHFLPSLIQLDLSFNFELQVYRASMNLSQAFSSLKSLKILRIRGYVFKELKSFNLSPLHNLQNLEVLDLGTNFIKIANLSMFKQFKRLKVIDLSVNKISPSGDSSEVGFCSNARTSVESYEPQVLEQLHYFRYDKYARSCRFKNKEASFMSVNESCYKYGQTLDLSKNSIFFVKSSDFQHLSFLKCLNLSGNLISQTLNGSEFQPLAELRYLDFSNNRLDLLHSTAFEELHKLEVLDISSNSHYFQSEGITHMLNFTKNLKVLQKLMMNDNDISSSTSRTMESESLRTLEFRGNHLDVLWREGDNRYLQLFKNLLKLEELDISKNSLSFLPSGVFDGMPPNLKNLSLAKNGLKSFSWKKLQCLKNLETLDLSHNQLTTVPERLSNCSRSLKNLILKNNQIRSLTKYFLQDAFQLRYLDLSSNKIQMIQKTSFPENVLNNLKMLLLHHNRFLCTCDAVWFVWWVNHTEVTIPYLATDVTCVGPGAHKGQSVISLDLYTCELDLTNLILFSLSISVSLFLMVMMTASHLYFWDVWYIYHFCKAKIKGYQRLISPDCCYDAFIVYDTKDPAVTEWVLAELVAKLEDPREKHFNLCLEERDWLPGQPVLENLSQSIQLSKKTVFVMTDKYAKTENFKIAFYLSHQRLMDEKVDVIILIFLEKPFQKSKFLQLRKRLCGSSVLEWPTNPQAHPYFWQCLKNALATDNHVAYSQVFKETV
Outline: (§1)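 Ligand levels: TLR7 gardiquimod 7.5 μM, TLR8 R848 15.9 μM, TLR9 ODN2006 5 nM, added after 30 min room-temperature compound pre-incubation at 0.05 nM-50 μM. Reporter SEAP read with HEK-Blue Detection reagent after 22 h, 37° C. Inhibition expressed as % reduction relative to agonist-plus-DMSO and known-inhibitor controls.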

human TLR9 = target: T2, human TLR9 (Homo sapiens, UniProt Q9NR96); experiment: TLR9 inhibition reporter assay (HEK-Blue cells, SEAP reporter, ODN2006 stimulation); details: HEK-Blue cells overexpressing human TLR9, SEAP reporter, ODN2006 5 nM
T2 construct: host or cells: HEK-Blue cells
T2 sequence (Q9NR96 26-1032): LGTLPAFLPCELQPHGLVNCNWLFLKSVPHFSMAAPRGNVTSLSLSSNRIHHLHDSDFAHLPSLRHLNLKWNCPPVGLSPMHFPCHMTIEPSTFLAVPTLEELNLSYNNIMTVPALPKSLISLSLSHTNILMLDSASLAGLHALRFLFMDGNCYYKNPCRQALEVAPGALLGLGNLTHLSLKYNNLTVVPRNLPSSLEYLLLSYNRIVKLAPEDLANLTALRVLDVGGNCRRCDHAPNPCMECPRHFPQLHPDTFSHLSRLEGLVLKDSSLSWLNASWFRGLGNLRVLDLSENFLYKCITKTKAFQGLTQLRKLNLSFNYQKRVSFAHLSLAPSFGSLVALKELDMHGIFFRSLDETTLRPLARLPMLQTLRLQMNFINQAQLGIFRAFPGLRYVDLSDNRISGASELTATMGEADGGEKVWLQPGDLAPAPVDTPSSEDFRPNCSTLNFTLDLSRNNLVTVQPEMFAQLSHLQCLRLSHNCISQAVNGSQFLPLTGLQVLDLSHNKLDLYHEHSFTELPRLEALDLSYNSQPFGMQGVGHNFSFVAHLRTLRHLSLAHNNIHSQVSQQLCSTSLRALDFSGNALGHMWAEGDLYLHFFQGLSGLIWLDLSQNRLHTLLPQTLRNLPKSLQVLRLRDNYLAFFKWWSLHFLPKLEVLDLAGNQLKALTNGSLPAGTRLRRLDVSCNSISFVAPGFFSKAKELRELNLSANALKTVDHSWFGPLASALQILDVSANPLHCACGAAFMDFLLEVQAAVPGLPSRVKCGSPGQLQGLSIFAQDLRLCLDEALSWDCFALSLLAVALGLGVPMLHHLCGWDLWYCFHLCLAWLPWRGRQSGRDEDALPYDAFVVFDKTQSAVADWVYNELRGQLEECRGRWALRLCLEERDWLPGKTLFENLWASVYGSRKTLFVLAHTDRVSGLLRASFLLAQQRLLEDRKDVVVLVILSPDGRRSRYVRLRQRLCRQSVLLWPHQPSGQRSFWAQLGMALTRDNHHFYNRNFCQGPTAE
Outline: as §1

human TLR8 = target: T3, human TLR8 (Homo sapiens, UniProt Q9NR97); experiment: TLR8 inhibition reporter assay (HEK-Blue cells, SEAP reporter, R848 stimulation); details: HEK-Blue cells overexpressing human TLR8, SEAP reporter, R848 15.9 μM
T3 construct: host or cells: HEK-Blue cells
T3 sequence (Q9NR97 27-1041): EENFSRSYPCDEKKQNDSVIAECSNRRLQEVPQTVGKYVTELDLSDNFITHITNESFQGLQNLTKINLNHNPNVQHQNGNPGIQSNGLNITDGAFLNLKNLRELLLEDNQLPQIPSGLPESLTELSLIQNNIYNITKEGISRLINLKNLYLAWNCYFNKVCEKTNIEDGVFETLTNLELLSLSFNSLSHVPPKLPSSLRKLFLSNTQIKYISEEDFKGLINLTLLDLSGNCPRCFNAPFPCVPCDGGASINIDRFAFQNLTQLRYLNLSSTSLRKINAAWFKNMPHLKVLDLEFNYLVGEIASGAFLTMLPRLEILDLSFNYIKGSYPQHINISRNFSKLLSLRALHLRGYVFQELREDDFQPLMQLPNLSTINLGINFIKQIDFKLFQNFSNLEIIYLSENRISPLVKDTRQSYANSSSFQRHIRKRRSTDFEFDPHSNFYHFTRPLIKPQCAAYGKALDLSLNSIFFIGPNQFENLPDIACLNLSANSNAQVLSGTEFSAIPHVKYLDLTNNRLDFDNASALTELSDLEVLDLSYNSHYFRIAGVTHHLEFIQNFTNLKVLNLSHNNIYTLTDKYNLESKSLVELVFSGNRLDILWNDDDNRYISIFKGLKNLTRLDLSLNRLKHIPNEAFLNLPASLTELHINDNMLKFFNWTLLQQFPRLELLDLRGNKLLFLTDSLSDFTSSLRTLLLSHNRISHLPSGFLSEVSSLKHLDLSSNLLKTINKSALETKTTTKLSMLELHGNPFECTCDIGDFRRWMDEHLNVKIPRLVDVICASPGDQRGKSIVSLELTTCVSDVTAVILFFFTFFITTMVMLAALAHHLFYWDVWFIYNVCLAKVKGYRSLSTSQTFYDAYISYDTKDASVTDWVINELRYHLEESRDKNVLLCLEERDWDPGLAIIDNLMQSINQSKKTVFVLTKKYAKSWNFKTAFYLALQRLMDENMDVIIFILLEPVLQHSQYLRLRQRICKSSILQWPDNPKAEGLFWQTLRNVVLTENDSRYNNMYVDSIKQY
Outline: as §1

Row | IC50 (human TLR7) [nM] | IC50 (human TLR9) [nM] | IC50 (human TLR8) [nM] | Compound
1 | 9 | 8180 | 12 | Cc1c(-c2[nH]c3ccc(C4CCC(NC(=O)CN(C)C)CC4)cc3c2C(C)C)cn2ncnc2c1C (stereo not drawn) [Example 124]
2 | 0.51 | > 50000 | 2.3 | CCN(CC)CC(=O)NC1CCC(c2ccc3[nH]c(-c4cn5ncnc5c(C)c4C)c(C(C)C)c3c2)CC1 (stereo not drawn) [Example 126]
3 | 0.37 | 2250 | 1.4 | CNCC(=O)NC1CCC(c2ccc3[nH]c(-c4cn5ncnc5c(C)c4C)c(C(C)C)c3c2)CC1 (stereo not drawn) [Example 128, N-(4-(2-(7,8-dimethyl-[1,2,4]triazolo[1,5-a]pyridin-6-yl)-3-isopropyl-1H-indol-5-yl)cyclohexyl)-2-(methylamino)acetamide]
4 | 0.44 | 6040 | 1.5 | CCN(C)CC(=O)NC1CCC(c2ccc3[nH]c(-c4cc(OC)c5ncnn5c4)c(C(C)C)c3c2)CC1 (stereo not drawn) [Example 132, 2-(ethyl(methyl)amino)-N-(4-(3-isopropyl-2-(8-methoxy-[1,2,4]triazole [1,5-a]pyridin-6-yl)-1H-indol-5-yl)cyclohexyl)acetamide]
5 | 0.28 | 2020 | 0.75 | COc1cc(-c2[nH]c3ccc(C4CCC(NC(=O)CN5CCCC5)CC4)cc3c2C(C)C)cn2ncnc12 (stereo not drawn) [Example 133]
6 | 0.41 | 4440 | 2.5 | COc1cc(-c2[nH]c3ccc(C4CCC(NC(=O)CN5CC6(COC6)C5)CC4)cc3c2C(C)C)cn2ncnc12 (stereo not drawn) [Example 138]
7 | 2 | 4410 | 14 | COc1cc(-c2[nH]c3ccc(C4CCC(NC(=O)CN5CCOCC5)CC4)cc3c2C(C)C)cn2ncnc12 (stereo not drawn) [Example 142]
8 | 1 | 2440 | 7.7 | Cc1cc(-c2[nH]c3ccc(C4CCC(N(C)C(=O)CN(C)C)CC4)cc3c2C(C)C)cn2ncnc12 (stereo not drawn) [Example 148]

The remaining lines, values behind:

Row | Compound | IC50 (human TLR7) [nM] | IC50 (human TLR9) [nM] | IC50 (human TLR8) [nM]
9 | Cc1cc(-c2[nH]c3ccc(C4CCC(NC(=O)CN(C)C)CC4)cc3c2C(C)C)cc(C)n1 (stereo not drawn) [Example 120] | 4 | 323 | 21
10 | Cc1cc(-c2[nH]c3ccc(C4CCC(NC(=O)CN(C)C)CC4)cc3c2C(C)C)cn2ncnc12 (stereo not drawn) [Example 121] | 0.41 | 7150 | 2.6
11 | COc1cc(-c2[nH]c3ccc(C4CCC(NC(=O)CN(C)C)CC4)cc3c2C(C)C)cn2ncnc12 (stereo not drawn) [Example 122] | 0.24 | 8700 | 2.4
12 | Cc1c(-c2[nH]c3ccc(C4CCC(NC(=O)CN(C)C)CC4)cc3c2C(C)C)cn2ncnc2c1C (stereo not drawn) [Example 123] | 0.52 | > 50000 | 1
13 | CCN(CC)CC(=O)NC1CCC(c2ccc3[nH]c(-c4cn5ncnc5c(C)c4C)c(C(C)C)c3c2)CC1 (stereo not drawn) [Example 125] | 11 | 6980 | 10
14 | COc1cc(-c2[nH]c3ccc(C4CCC(NC(=O)CN(C)C)CC4)cc3c2C(C)C)cn2ncnc12 (stereo not drawn) [Example 127] | 2 | 3160 | 3.2
15 | CN[C@@H](C)C(=O)NC1CCC(c2ccc3[nH]c(-c4cn5ncnc5c(C)c4C)c(C(C)C)c3c2)CC1 (stereo partly drawn) [Example 131] | 0.45 | 2990 | 1
16 | COc1cc(-c2[nH]c3ccc(C4CCC(NC(=O)CNC5(C)COC5)CC4)cc3c2C(C)C)cn2ncnc12 (stereo not drawn) [Example 135] | 2 | 43800 | 12
17 | COc1cc(-c2[nH]c3ccc(C4CCC(NC(=O)CNC5COC5)CC4)cc3c2C(C)C)cn2ncnc12 (stereo not drawn) [Example 137] | 2 | 26600 | 4.9
18 | COc1cc(-c2[nH]c3ccc(C4CCC(NC(=O)CNC5COC5)CC4)cc3c2C(C)C)cn2ncnc12 (stereo not drawn) [Example 139] | 18 | > 50000 | 40
19 | COc1cc(-c2[nH]c3ccc(C4CCC(NC(=O)CNCC(C)(C)O)CC4)cc3c2C(C)C)cn2ncnc12 (stereo not drawn) [Example 140] | 0.7 | 14200 | 5.6
20 | COc1cc(-c2[nH]c3ccc(C4CCC(NC(=O)CN5CCOCC5)CC4)cc3c2C(C)C)cn2ncnc12 (stereo not drawn) [Example 141] | 2 | 4320 | 18
21 | COc1cc(-c2[nH]c3ccc(C4CCC(NC(=O)CN(C)C5CC5)CC4)cc3c2C(C)C)cn2ncnc12 (stereo not drawn) [Example 143] | 2 | 27700 | 8
22 | COc1cc(-c2[nH]c3ccc(C4CCC(NC(=O)CN5CCS(=O)(=O)CC5)CC4)cc3c2C(C)C)cn2ncnc12 (stereo not drawn) [Example 144] | 3 | 33300 | 9.7
23 | COc1cc(-c2[nH]c3ccc(C4CCC(N(C)C(=O)CN(C)C)CC4)cc3c2C(C)C)cn2ncnc12 (stereo not drawn) [Example 147, 2-(dimethylamino)-N-(4-(3-isopropyl-2-(8-methoxy-[1,2,4]triazolo[1,5-a]pyridin-6-yl)-1H-indol-5-yl)cyclohexyl)-N-methylacetamide] | 0.43 | 1490 | 5.1
